Ends that are not written are not given here.

Assay type in all cases: cell-based, Candida albicans (ATCC 90028)
In test [1] the test system is planktonic C. albicans cells. Kind of test: Resazurin reduction / viability assay on planktonic C. albicans cells (broth microdilution, CLSI M27-A3). The following applies: for inhibition of cell viability: planktonic C. albicans, 2.5 × 10^3 cells per well, 20 µg/mL, 24 h, 37 °C, RPMI-1640, resazurin fluorescence, vs untreated cells, triplicate; for Antimycrobial Activity against Planktonic C. albicans Cells [%] at 20 µg/mL: in comparison to Pom-1 (= 100%), 20 µg/mL peptide. The method, then:
The viability of treated C. albicans cells with Pom-1A to F was determined according to the Clinical and Laboratory Standards Institute guidelines (M27-A3) for the broth microdilution assay. For this, 2.5 × 10^3 yeast cells were incubated in 200 µL of RPMI-1640 medium (supplemented with L-glutamine) in the presence of various concentrations of Pom-1A to F (2.5–20 µg/mL) in flat-bottomed polystyrene microtiter plates with 96 wells (Sarstedt AG and Co. KG, Nümbrecht, Germany) at 37 °C with shaking at 900 rpm on an Eppendorf shaker. Quantitation of viable yeast cells was performed using a Resazurin-reduction-Assay. For this, yeast cells were incubated with 20 µL of 0.15 mg/mL resazurin solution for 2 h. During this time, the viable cells were able to reduce the resazurin to resorufin. […] For this purpose, a dilution series was prepared for each sample in RPMI 1640 medium and 1 µL was added to Sabouraud agar plates, which were then incubated for 24 h at 37 °C, respectively. To determine the antifungal effect of the peptide derivatives on planktonic C. albicans cells, different concentrations (2.5–20 µg/mL) of the peptides were applied to fixed cell numbers (2.5 × 10^3 cells per well) and were incubated for 24 h in a suspension microtiter plate.
A general note: The colour change of resazurin is a common sign of viable cells or microbes.

Test [2] has as its system C. albicans biofilm. Also on record: semi inhibitory concentration (IC50) of biofilm formation / IC50 Values against Biofilm Formation: unit not given here. Particulars: for semi inhibitory concentration (IC50) of biofilm formation / IC50 Values against Biofilm Formation: C. albicans, crystal violet, 24 h, 37 °C, 2.5–20 µg/mL, Hill fit, triplicate; for semi inhibitory concentration (IC50) of biofilm formation: Figure 4A; for IC50 Values against Biofilm Formation: without agitation, Table 1 (rounded); for Antimicrobial Activity against C. albicans Biofilm [%] Based on IC50 Values: in comparison to Pom-1 (= 100%), from IC50 values. Here is the method: The analysis of the antifungal effect of the peptides on biofilm followed the same conditions as described previously. In brief, 2.5 × 10^3 yeast cells were incubated in 200 µL RPMI-1640 medium with L-glutamine in flat-bottomed polystyrene microtiter plates with 96 wells (Sarstedt AG and Co. KG, Nümbrecht, Germany) with the respective peptides at different concentrations (2.5–20 µg/mL) for 24 h at 37 °C, but without agitation. The quantification of the biofilm took place due to a crystal violet assay, which was originally developed by George O’ Toole for bacteria and was adapted for Candida biofilms. For this, the planktonic phase in the wells was removed and the biofilms were washed twice with 200 µL of demineralized water. Subsequently, the cells in the biofilm were stained for 15 min with 200 µL of a 0.1% (w/v) crystal violet solution. The solution was then removed again and the stained cells were washed twice with 200 µL of demineralized water. Then, the biofilms in the microtiter plate were dried for 24 h at 25 °C. These were then mixed with 200 µL of 30% acetic acid. After 15 min, the stained solution was transferred to a new microtiter plate and the absorbance at 560 nm was measured using a Tecan infinite F200 microplate reader. The data obtained were then graphically identified using a Hill non-linear dose-response equation and the semi-inhibitory concentration (IC50) was determined, at which 50% of the biofilm was not formed compared to the untreated control.
In order to evaluate the potential of the novel Pom-1A-F peptides, the well established crystal violet assay for microbial cultures in microtiter plates was performed to quantify the biomass formed.

Test [3] has as its system C. albicans biofilm. The experiment in a line: Microscopic analysis of treated C. albicans biofilms. Particulars: 20 µg/mL, 24 h at 37 °C, transmitted light, compared with untreated and Pom-1 control biofilms. Here is the method: C. albicans biofilms were treated with Pom-1, and its derivatives in comparison to an untreated bifilm control (Figure 4B).
Figure 4 Antifungal activity of Pom-1A to F towards C. albicans biofilms. (A) Determined dose-dependent effect of Pom-1 derivatives on biofilm mass by crystal violet assay with fluconazole and Pom-1 as the control agent. All experiments were performed in triplicate and error bars indicate standard deviations. (B) Microscopic analysis using a Leica DMi8 coded (Leica Microsystems CMS GmbH, Wetzlar, Germany) microscope) of untreated C. albicans biofilm and biofilm treated with Pom-1 and its derivatives (20 µg/mL) after 24 h of incubation at 37 °C under transmitted light. TEXT PRINTED IN THE PICTURE: (A) Pom-1A: IC50: 0.9555 | (A) Pom-1B: IC50: 0.008353 | (A) Pom-1C: IC50: 0.08687 | (A) Pom-1D: IC50: 4.930e-032 | (A) Pom-1E: IC50: 2.893 | (A) Pom-1F: IC50: 0.1570 DOUBTS OF THE COPYIST ABOUT THIS PICTURE: Pom-1A, IC50: small print, 0.9555 could be 0.9535 or 0.9556 / Pom-1B, IC50: small print, 0.008353 digits 8/3/5 not certain / Pom-1C, IC50: small print, 0.08687 digits 8/6 not certain / Pom-1D, IC50: small print, 4.930e-032 digits 9/3 not certain / Pom-1E, IC50: small print, 2.893 digits 8/9/3 not certain / Pom-1F, IC50: small print, 0.1570 digit 5 not certain

The test system of test [4] is C. albicans planktonic cells. Kind of test: Plate spot assay (colony formation after treatment of planktonic cells). The following applies: after 24 h incubation with peptide (2.5–20 µg/mL), dilutions spotted on Sabouraud agar, further 24 h at 37 °C. Here is the method:
The viability of treated C. albicans cells with Pom-1A to F was determined according to the Clinical and Laboratory Standards Institute guidelines (M27-A3) for the broth microdilution assay. For this, 2.5 × 10^3 yeast cells were incubated in 200 µL of RPMI-1640 medium (supplemented with L-glutamine) in the presence of various concentrations of Pom-1A to F (2.5–20 µg/mL) in flat-bottomed polystyrene microtiter plates with 96 wells (Sarstedt AG and Co. KG, Nümbrecht, Germany) at 37 °C with shaking at 900 rpm on an Eppendorf shaker. Quantitation of viable yeast cells was performed using a Resazurin-reduction-Assay. For this, yeast cells were incubated with 20 µL of 0.15 mg/mL resazurin solution for 2 h. During this time, the viable cells were able to reduce the resazurin to resorufin. […] The data obtained were subsequently identified in a Hill nonlinear dose-response equation and the semi-inhibitory concentration (IC50) could be determined, at which the cell viability was reduced by 50% compared to the untreated control. In addition, after incubation, 1 µL cell suspension was taken from each well of the microtiter plate to visually confirm the graphical results in a plate spot assay. For this purpose, a dilution series was prepared for each sample in RPMI 1640 medium and 1 µL was added to Sabouraud agar plates, which were then incubated for 24 h at 37 °C, respectively.
For this purpose, 1 µL cell suspension was taken from each well before adding the resazurin solution from the suspension microtiter plate. This sample was then diluted and was added to a Sabourand agar plate, which was then incubated for an additional 24 h for colony formation.

`OC(Cn1cncn1)(Cn1cncn1)c1ccc(F)cc1F` [fluconazole, reference compound]: in test [1], the “inhibition of cell viability” value is on record as “up to 70%”.
Consider AGSIAWAIGSGLFGGAKLIKIKKY [Pom-1C], for which, in test [1], the “Antimycrobial Activity against Planktonic C. albicans Cells [%] at 20 µg/mL” value (“Antimycrobial Activity … [%] at 20 µg/mL” for short) worked out at 100%. Moreover, in the test with C. albicans biofilm [2], the “semi inhibitory concentration (IC50) of biofilm formation” value (shortened to “semi inhibitory concentration (IC50)”) came to 0.08687, the “IC50 Values against Biofilm Formation” value was 0.08 and the “Antimicrobial Activity against C. albicans Biofilm [%] Based on IC50 Values” is given as 4750%.
On to AIGSGLFGGAKLIKIKKYI [Pom-1F], for which the “biofilm cell density / surface coverage by microscopy” value in the test with C. albicans biofilm [3] was “slightly higher surface coverage”. Besides, in test [1], the “Antimycrobial Activity … [%] at 20 µg/mL” value came to 82%. For the same compound, in the test with C. albicans biofilm [2], the “semi inhibitory concentration (IC50)” value was 0.1570, the “IC50 Values against Biofilm Formation” value came out at 0.16 and the “Antimicrobial Activity against C. albicans Biofilm [%] Based on IC50 Values” amounted to 2375%.
“H-KCAGSIAWAIGSGLFGGAKLIKIKKYIAELGGLQ-OH [Pom-1]”: the “biofilm cell density / surface coverage by microscopy” value in the test with C. albicans biofilm [3] is given as “significant reduction”. For the same compound, the “Antimycrobial Activity … [%] at 20 µg/mL” value in test [1] came out at 100%. For the same compound, in the test with C. albicans biofilm [2], the “IC50 Values against Biofilm Formation” value was determined as 3.8 and the “Antimicrobial Activity against C. albicans Biofilm [%] Based on IC50 Values” was 100%.
As to IGSGLFGGAKLIKIKKYI [Pom-1A], the “colony formation in plate spot assay” value in test [4] is given as “colony formation decreased with the increase of peptide concentrations”. Further, the “Antimycrobial Activity … [%] at 20 µg/mL” value in test [1] stood at 133%. Moreover, in the test with C. albicans biofilm [2], the “semi inhibitory concentration (IC50)” value stood at 0.9555, the “IC50 Values against Biofilm Formation” value came out at 0.95 and the “Antimicrobial Activity against C. albicans Biofilm [%] Based on IC50 Values” was found to be 400%.
Regarding IGSGLFGGAKLIKIKKYIA [Pom-1D], the “colony formation in plate spot assay” value in test [4] is recorded as “colony formation decreased with the increase of peptide concentrations”. The “Antimycrobial Activity … [%] at 20 µg/mL” value in test [1] was 97%.
Consider KCAGSIAWAIGSGLFGGAKLIKIKK [Pom-1E], for which the “biofilm cell density / surface coverage by microscopy” value in the test on C. albicans biofilm [3] is given as “slightly higher surface coverage”. Moreover, the “Antimycrobial Activity … [%] at 20 µg/mL” value in test [1] came out at 153%. Also, in the test with C. albicans biofilm [2], the “semi inhibitory concentration (IC50)” value is listed as 2.893, the “IC50 Values against Biofilm Formation” value is listed as 2.89 and the “Antimicrobial Activity against C. albicans Biofilm [%] Based on IC50 Values” is 131%.
Turning to KCAGSIAWAIGSGLFGGAKLIKIKKY [Pom-1B], in test [4], the “colony formation in plate spot assay” value is given as “colony formation decreased with the increase of peptide concentrations”. Moreover, in test [1], the “Antimycrobial Activity … [%] at 20 µg/mL” value came to 160% and the “inhibition of cell viability” value is “up to 70%”. Further, in the test with C. albicans biofilm [2], the “semi inhibitory concentration (IC50)” value amounted to 0.008353, the “IC50 Values against Biofilm Formation” value is given as 0.008 and the “Antimicrobial Activity against C. albicans Biofilm [%] Based on IC50 Values” is on record as 47500%.

The values above are taken from publication PMC8877593, “Increased Activities against Biofilms of the Pathogenic Yeast Candida albicans of Optimized Pom-1 Derivatives” (Pharmaceutics, 2022).
